Laboratory results: PubChem BioAssay (NCI)
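Each compound was tested at five concentrations against cells in 96-well plates for 48 hours. Abbreviation: GI50, concentration required for 50% inhibition of growth. TGI marks complete inhibition of growth.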

How the values were obtained:
Test in all cases: DTP human tumour cell line panel, 48 h
786-0 renal = test system: 786-0 renal
A549 NSCLC = test system: A549 NSCLC
CCRF-CEM leukemia = test system: CCRF-CEM leukemia
KM12 colon = test system: KM12 colon
MDA-MB-231 breast = test system: MDA-MB-231 breast
MOLT-4 leukemia = test system: MOLT-4 leukemia
NCI-H23 lung = test system: NCI-H23 lung
OVCAR-4 ovarian = test system: OVCAR-4 ovarian
RPMI-8226 leukemia = test system: RPMI-8226 leukemia
RXF 393 renal = test system: RXF 393 renal

Compound	GI50 (786-0 renal) [µM]	TGI (786-0 renal) [µM]	GI50 (A549 NSCLC) [µM]	TGI (A549 NSCLC) [µM]	GI50 (CCRF-CEM leukemia) [µM]	TGI (CCRF-CEM leukemia) [µM]	GI50 (KM12 colon) [µM]	TGI (KM12 colon) [µM]	GI50 (MDA-MB-231 breast) [µM]	TGI (MDA-MB-231 breast) [µM]	GI50 (MOLT-4 leukemia) [µM]	TGI (MOLT-4 leukemia) [µM]	GI50 (NCI-H23 lung) [µM]	TGI (NCI-H23 lung) [µM]	GI50 (OVCAR-4 ovarian) [µM]	TGI (OVCAR-4 ovarian) [µM]	GI50 (RPMI-8226 leukemia) [µM]	TGI (RPMI-8226 leukemia) [µM]	GI50 (RXF 393 renal) [µM]	TGI (RXF 393 renal) [µM]
CCN(Cc1c(Cl)cccc1Cl)c1ccc(CO)c(Cl)c1	13.8	28.1	3.35	20.6	15	36.6	13.7	28.4	13	26.2	14.8	35.7	10.8	26.2	0.194	8.24	1.12	17.6	7.16	24.7
CCN1CCC(O)(/C=C/c2ccc(OC)cc2)C(C(=O)/C=C/c2ccc(OC)cc2)C1 (stereo not given)	–	12.4	–	34	–	5.76	–	19.9	–	17.5	–	12.4	–	27.9	–	26.7	–	44.8	–	11.9
Cc1cc(Nc2cc(N)ncn2)c(=O)n2c1C(=O)NC21CCCCC1	22.9	> 100	> 100	> 100	> 100	> 100	> 100	> 100	82	> 100	> 100	> 100	> 100	> 100	> 100	> 100	> 100	> 100	37.7	> 100
CCCCCCCCCCCCCCCCCC(=O)Nc1ccn(C2OC(CO)C(O)C2O)c(=O)n1 (stereo not given)	–	> 100	–	> 100	–	26.2	–	> 100	–	> 100	–	23.1	–	98.7	–	> 100	–	> 100	–	> 100
Cc1c([N+](=O)[O-])oc2ccc3ccccc3c12	–	> 100	–	> 100	–	> 100	–	> 100	–	> 100	–	> 100	–	> 100	–	> 100	–	> 100	–	> 100
NC(=S)NN=C1CSSC1	11.9	72.5	2.26	12.1	3.77	> 100	5.92	23.5	1.77	9.86	3.75	43	3.78	35.5	4.32	38.7	11.4	55.6	1.45	5.58
Cc1ccc([C@]2(C)CC[C@H](C)/C2=C\Br)c(O)c1	3.59	13.4	5.85	19	6.77	35.6	3.55	13.7	3.5	14.4	4.17	16.8	11.4	24.9	3.42	14	3.21	24.7	3.08	12.4
O=C(NC(=S)Nc1cc(Cl)ccc1O)c1cccc(Br)c1	38	> 100	6.19	> 100	3.68	> 100	5.78	> 100	17	> 100	4.47	> 100	7.93	> 100	4.7	> 100	4.15	> 100	18.7	92.3
